Laboratory results from PubChem BioAssay (NCI).
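96-well plates; 48 h exposure; 5 concentrations. Endpoints by linear interpolation between flanking doses. Not reached: highest tested concentration assigned. Here, GI50 denotes the concentration required for 50% inhibition of growth. At the TGI there is no net growth.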

Tests used:
Experiment in all cases: NCI-60 cell line screen, 48 h
PC-3 prostate = tested on: PC-3 prostate
OVCAR-5 ovarian = tested on: OVCAR-5 ovarian
NCI-H23 lung = tested on: NCI-H23 lung
KM12 colon = tested on: KM12 colon
SK-MEL-2 melanoma = tested on: SK-MEL-2 melanoma
HOP-92 NSCLC = tested on: HOP-92 NSCLC
HCT-15 colon = tested on: HCT-15 colon
SF-268 CNS = tested on: SF-268 CNS
LOX IMVI melanoma = tested on: LOX IMVI melanoma
SF-295 CNS = tested on: SF-295 CNS

SMILES | TGI (PC-3 prostate) | TGI (OVCAR-5 ovarian) | TGI (NCI-H23 lung) | TGI (KM12 colon) | TGI (SK-MEL-2 melanoma) | TGI (HOP-92 NSCLC) | TGI (HCT-15 colon) | TGI (SF-268 CNS) | TGI (LOX IMVI melanoma) | TGI (SF-295 CNS) | GI50 (PC-3 prostate) | GI50 (OVCAR-5 ovarian) | GI50 (NCI-H23 lung) | GI50 (KM12 colon) | GI50 (SK-MEL-2 melanoma) | GI50 (HOP-92 NSCLC) | GI50 (HCT-15 colon) | GI50 (SF-268 CNS) | GI50 (LOX IMVI melanoma) | GI50 (SF-295 CNS)
COC1/C=C\OC2(C)Oc3c(C)c(O)c4c(O)c(c(/C=N\OCCCc5ccccc5)c(O)c4c3C2=O)NC(=O)/C(C)=C\C=C/C(C)C(O)C(C)C(O)C(C)C(OC(C)=O)C1C (centres undefined) | 11.2 µM | 20.4 µM | 10 µM | 14 µM | 5.35 µM | 6.26 µM | 11 µM | 18.3 µM | 10.2 µM | 16.3 µM | – | – | – | – | – | – | – | – | – | –
CCN=C=NCCCN(C)C | > 100 µM | > 100 µM | > 100 µM | > 100 µM | > 100 µM | > 100 µM | > 100 µM | > 100 µM | > 100 µM | > 100 µM | – | – | – | – | – | – | – | – | – | –
CN1CCC(C(=O)NNc2ccccc2)CC1 | – | > 41.6 µM | > 100 µM | > 77.8 µM | > 46.4 µM | > 100 µM | > 51.1 µM | > 100 µM | 11.3 µM | 33 µM | – | – | – | – | – | – | – | – | – | –
COc1ccc(-c2nn(-c3ccc(NC(=O)Nc4ccc(Cl)c(Cl)c4)cc3)cc2-c2ccncc2)cc1Cl | 14.4 µM | > 100 µM | > 100 µM | > 100 µM | 4.76 µM | 5.72 µM | > 100 µM | > 100 µM | 10.4 µM | > 100 µM | 1.29 µM | 2.8 µM | 2.22 µM | 2.13 µM | 2.02 µM | 1.82 µM | 1.7 µM | 4.19 µM | 2.24 µM | 2.21 µM
c1ccc(-n2cnnc2-c2nsc3ccccc23)cc1 | – | > 100 µM | > 100 µM | > 100 µM | > 100 µM | > 100 µM | > 100 µM | > 100 µM | > 100 µM | – | – | – | – | – | – | – | – | – | – | –
C=C1CC23CCC4C(C)(C(=O)O)CCCC4(C)C2CCC1C3 (centres undefined) | > 100 µM | > 100 µM | > 100 µM | > 100 µM | > 100 µM | 94.3 µM | > 100 µM | > 100 µM | > 100 µM | > 100 µM | – | – | – | – | – | – | – | – | – | –
O=C(O)CC(C(=O)O)C1c2ccccc2-c2ccccc21 (centres undefined) | > 100 µM | – | > 100 µM | > 100 µM | > 100 µM | – | > 100 µM | > 100 µM | > 100 µM | > 100 µM | – | – | – | – | – | – | – | – | – | –
COc1cc(C(C)(C)C)cc(OC)c1C(O)(c1c(OC)cc(C(C)(C)C)cc1OC)c1c(OC)cc(C(C)(C)C)cc1OC | – | 1.02 µM | – | 1.05 µM | 0.692 µM | – | – | – | 1.45 µM | 0.479 µM | – | 0.327 µM | – | 0.349 µM | 0.325 µM | – | – | – | 0.357 µM | 0.221 µM
O=Nc1ccc(O)c2ncccc12 | 29.8 µM | 32.5 µM | 3.04 µM | 20.4 µM | 6.39 µM | 11.9 µM | 12.9 µM | 17.2 µM | 18.6 µM | 36 µM | – | – | – | – | – | – | – | – | – | –
Nc1cc(S(=O)(=O)O)cc2cc(S(=O)(=O)O)c(N=Nc3ccc(-c4ccc(N=Nc5c(S(=O)(=O)O)cc6cc(S(=O)(=O)O)cc(N)c6c5O)cc4)cc3)c(O)c12 | – | > 100 µM | > 100 µM | > 100 µM | > 100 µM | > 100 µM | > 100 µM | > 100 µM | > 100 µM | > 100 µM | – | – | – | – | – | – | – | – | – | –
OC(Cc1ccccc1)(Cc1ccccc1)c1ccccc1 | 34.4 µM | 38 µM | 38.4 µM | 33.3 µM | 29.6 µM | 32.2 µM | 50.4 µM | 29.8 µM | 37.1 µM | 34.9 µM | – | – | – | – | – | – | – | – | – | –
C=C(C)C(=O)OC1C(C(C)CCCO)=C(CO)CC2OC(=O)C(=C)C21 (centres undefined) | 76.6 µM | 54.3 µM | 43 µM | 27.7 µM | 61.7 µM | 44.2 µM | 26.9 µM | 48.8 µM | 24.5 µM | > 100 µM | – | – | – | – | – | – | – | – | – | –
C=C1C(=O)OC2/C=C(\C)C(=O)CC3OC(C)(C)OC3(C)CC(OC(=O)/C(C)=C/C)C12 (centres undefined) | 59 µM | 47.2 µM | 57.8 µM | 38 µM | 82.8 µM | 38.1 µM | 19.8 µM | > 61.3 µM | 27.3 µM | 98.2 µM | – | – | – | – | – | – | – | – | – | –
O=[N+]([O-])c1ccc(/C=N\Nc2ccc([N+](=O)[O-])cn2)cc1 | > 100 µM | > 100 µM | > 100 µM | > 100 µM | > 100 µM | > 100 µM | > 100 µM | > 100 µM | – | > 100 µM | – | – | – | – | – | – | – | – | – | –
N=C(N)c1ccc(-c2ccc(-c3cncc4ccccc34)s2)cc1F | – | 3.1 µM | – | 3.51 µM | – | – | 3.64 µM | – | – | 3.27 µM | – | 1.6 µM | – | 1.83 µM | – | – | 1.75 µM | – | – | 1.72 µM
C=C(CN(C)C)C(=O)c1ccc(C)cc1C | 31.1 µM | 31.1 µM | 27.3 µM | 31 µM | 37 µM | 10.4 µM | 12.5 µM | 35.4 µM | 15.2 µM | 31.6 µM | – | – | – | – | – | – | – | – | – | –
O=S(=O)(O)c1cc(N=Nc2cc(S(=O)(=O)O)c3ccccc3c2O)ccc1/C=C/c1ccc(N=Nc2cc(S(=O)(=O)O)c3ccccc3c2O)cc1S(=O)(=O)O | 986 µM | 472 µM | 975 µM | > 365 µM | > 620 µM | > 463 µM | > 727 µM | > 1000 µM | > 461 µM | > 731 µM | – | – | – | – | – | > 262 µM | 186 µM | – | – | –
C=C(C)[C@@H]1CC[C@]2(C(=O)Nc3ccccn3)CC[C@]3(C)[C@H](CC[C@@H]4[C@@]5(C)CCCNC(C)(C)[C@@H]5CC[C@]43C)[C@@H]12 | 6.2 µM | 3.89 µM | 3.77 µM | 3.36 µM | – | 7.64 µM | 3.09 µM | 4.79 µM | – | 3.07 µM | 1.99 µM | 1.92 µM | 1.85 µM | 1.82 µM | – | 2.06 µM | 1.61 µM | 1.95 µM | – | 1.68 µM
C=C(C)C1CC2=C(O1)C(=O)c1ccccc1C2=O (centres undefined) | – | – | 45.1 µM | 33.4 µM | – | 30.8 µM | 33.2 µM | – | > 100 µM | – | – | – | – | – | – | – | – | – | – | –
